Laboratory results as given in patent publication US4732984A, “Piperazinoisothiazolones with psychotropic activity” (priority 1986, dated 1988).
Where a name gives a salt, the structure may show the parent alone.

What was measured:
[1] = target: limbic D-2 dopamine receptor (Rattus norvegicus, UniProt P61169); assay: biochemical; type: binding, rats; settings: for Ki: rat limbic tissue, 0.3 nM 3H-spiroperidol, 37° C., 10 min, read-out: Limbic D-2 Binding (Ki nM)
Description: The compounds of the invention are further studied for their ability to inhibit limbic D-2 dopamine receptor binding. This in vitro assay measures the ability of the compounds tested to bind to the dopamine receptor sites.
Several rats are decapitated and the brains are rapidly removed. Limbic brain tissue (nucleus accumbens, septal area, olfactory tubercle) is dissected and homogenized on ice in 9 volumes of buffer (50 mM Tris-HCl, 120 mM NaCl, 5 mM KCl, 1 mM CaCl2, 1 mM MgCl2, 0.1% L-ascorbic acid, 10 μM pargyline HCl, pH 7.1) using a Polytron homogenizer at setting 5 for three 15-sec bursts. The homogenate is then diluted 4-fold with buffer and centrifuged at 30,000×g for 20 min, and the supernatant is discarded. The pellet is resuspended in the same volume of buffer and recentrifuged as before, again discarding the supernatant. This pellet is then resuspended in the same volume of buffer used in the homogenization, and the protein content of this preparation is assyed by the Lowry method. The homogenate is stored frozen at -70° C. until use.
Thirty μL of the homogenate (0.02-0.3 mg protein/sample) are incubated with 0.3 nM ^3 H-spiroperidol (New England Nuclear) and various concentrations of test drug in a final volume of 1 ml of the above buffer for 10 min in a 37° C. water bath. At the end of the incubation, 3 ml of cold 50 mM Tris-HCl, pH 7.7, are added to each tube, and the contents are rapidly vacuum-filtered through Whatman GF/B glass-fiber filters. The filters are then rapidly washed 3 times with 3 ml of the same buffer, placed in scintillation vials, and shaken for 15 min with 10 ml of Hydrofluor (National Diagnostics) scintillation cocktail. The vials are then counted in a Packard 460CD scintillation counter.
Specific binding is defined as total binding less binding in the presence of 1 μM (+)butaclamol. Binding in the presence of various concentrations of test drug is expressed as a per cent of specific binding when no drug is present.

[2] = Conditioned avoidance (discrete trial) test; type: in vivo, Male CD rats; settings: for ED50: Rattus norvegicus; for Activity at 40 mg/kg: 40 mg/kg perorally administered
Description: The antipsychotic activity of the compounds of the invention is assessed via the conditioned avoidance (discrete trial) test. This test has excellent clinical correlation for antipsychotic activity.
Male CD rats (Charles River) maintained at approximately 400-450 gm body weight are used. Rats trained previously are placed in plexiglass experimental chambers equipped with a response lever, house light, and sonalert. A steel grid floor is wired for presentation of electric shock. Each trial consists of a fifteen-second warning tone (conditioned stimulus), continuing for an additional fifteen seconds accompanied by electric shock, (unconditioned stimulus). The rat can terminate a trial at any point by depression of the response lever. A response during the initial fifteen-second warning tone ends the trial before shock delivery and is considered an avoidance response, while a response occurring during shock delivery is an escape response. Trials are presented on a variable interval schedule of two minutes. The session consists of sixty trials. Animals are run two to three times weekly with control sessions always preceding a drug run, and with at least one day intervening, compounds are administered i.p. or p.o. at appropriate pre-treatment times to a minimum of five to six rats at each dose level over a range of doses.
The following experimental parameters are recorded by computer: (1) the number of intertrial interval responses, (2) the number of avoidance responses, (3) the number of escape responses, and (4) the number of trials in which no response occurred.
Response counts are summed over all subjects at a given dose. […] This number is expressed as a percentage of the total trials. Control performance is arbitrarily assigned a value of 100% for avoidance and the dose calculated to produce a 50% block in avoidance responding (AB50 ) is obtained from a dose-effect regression line fitted by the method of least squares. Potential antipsychotic compounds suppress avoidance responding and increase escape responding.

dopamine receptor = settings: mice; 10 mg/kg s.c. apomorphine
[3] = Conditioned avoidance (shelf-jump response) test; type: in vivo, Male CD rats; settings: Rattus norvegicus, ip, rats, read-out: AB50 (standard compounds)
Description: Another test designed to determine the potential antipsychotic activity of the compounds of the invention is the conditioned avoidance (shelf-jump response) test.
Male CD rats (Charles River) maintained at approximately 400-450 gm body weight are used. […] A moveable wall, controlled by a motor, determines whether the rat has access to the shelf at any time during the experiment. The experimental chamber also contains a house light and sonalert. A steel grid floor in the main chamber is wired for presentation of electric shock. Each trial consists of a fifteen-second warning tone (conditioned stimulus), continuing for an additional fifteen seconds accompanied by electric shock (unconditioned stimulus). A response (jumping onto the exposed shelf of the upper chamber) occurring during the initial fifteen-second warning tone is considered an avoidance response, while a response occurring during shock delivery is considered an escape response. Trials are presented on a fixed interval schedule of one minute. The session consists of thirty-six trials. […]
The following experimental parameters are recorded by computer: (1) the number of avoidance responses, (2) the number of escape responses, and (3) the number of trials in which no response occurred.
Response counts are summed over all subjects at a given dose. […] This number is expressed as a percentage of the total trials. […]

[4] = po, perorally administered, discrete trial, rats, read-out: AB50 (the source's name)

Sequence of limbic D-2 dopamine receptor (P61169 whole entry): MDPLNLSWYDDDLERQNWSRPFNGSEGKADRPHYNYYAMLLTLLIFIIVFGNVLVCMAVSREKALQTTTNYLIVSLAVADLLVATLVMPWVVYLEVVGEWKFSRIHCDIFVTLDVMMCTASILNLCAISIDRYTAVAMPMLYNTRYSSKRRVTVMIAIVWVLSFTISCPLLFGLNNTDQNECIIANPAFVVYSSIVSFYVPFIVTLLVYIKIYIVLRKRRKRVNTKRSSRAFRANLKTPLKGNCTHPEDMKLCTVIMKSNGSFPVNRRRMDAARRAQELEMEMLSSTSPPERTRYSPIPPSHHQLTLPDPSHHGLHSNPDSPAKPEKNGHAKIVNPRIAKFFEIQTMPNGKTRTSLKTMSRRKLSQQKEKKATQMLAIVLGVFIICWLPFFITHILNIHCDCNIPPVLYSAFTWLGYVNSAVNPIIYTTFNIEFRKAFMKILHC

Compound | ED50 [2, 4] [mg/kg] | Activity at 40 mg/kg [2] | Ki [1] [nM] | also measured
O=C1[C@@H]2[C@@H]([C@H]3CC[C@@H]2O3)S(=O)(=O)N1CCCCN1CCN(c2cncc(Cl)n2)CC1 (relative stereo) [Example 8, 3aα,4β,7β,7aα-hexahydro-2-[4-[4-(6-chloro-2-pyrazinyl)-1-piperazinyl]butyl]-4,7-epoxy-1,2-benzisothiazol-3(2H)-one 1,1-dioxide, hydrochloride] | 34.3 | – | – | inhibition at 10 µM ([1]; read-out: Limbic D-2 Binding, % inhibition at 10 μM): 36%
O=C1[C@H]2[C@H]([C@@H]3CC[C@H]2O3)S(=O)(=O)N1CCCCN1CCN(c2cnccn2)CC1 (relative stereo) [Example 19, (3aα,4β,7β,7aα)-Hexahydro-2-[4-[4-(2-pyrazinyl)-1-piperazinyl]butyl]-4,7-epoxy-1,2-benzisothiazol-3(2H)-one 1,1-dioxide, dihydrochloride, hemihydrate] | 47.9 | – | – | –
O=C1[C@@H]2[C@@H]([C@@H]3CC[C@H]2O3)S(=O)(=O)N1CCCCN1CCN(c2cncc(Cl)n2)CC1 (relative stereo) [Example 20, (3aα,4α,7α,7aα)-2-[4-[4-(6-Chloro-2-pyrazinyl)-1-piperazinyl]butyl]hexahydro-4,7-epoxy-1,2-benzisothiazol-3(2H)-one 1,1-dioxide, hydrochloride] | – | showed activity | – | –
O=C1CC2(CCCC2)CC(=O)N1CCCCN1CCN(c2ncccn2)CC1 [Buspirone, 8-[4-[4-(2-pyrimidinyl)-1-piperazinyl]butyl]-8-azaspiro[4.5]decane-7,9-dione] | 32 | – | – | Activity in apomorphine-induced stereotyped behavior assay (dopamine receptor): inactive; ED50 [3]: 9.44 mg/kg
O=C1C2C3C=CC(C3)C2S(=O)(=O)N1CCCCN1CCN(c2ncccn2)CC1 (stereo not drawn) [Example 1, 3a,4,7,7a-Tetrahydro-2-[4-[4-(2-pyrimidinyl)-1-piperazinyl]butyl]-4,7-methano-1,2-benzisothiazol-3(2H)-one 1,1-dioxide, dihydrochloride, hemihydrate] | 45.4 | – | 1100 | –
O=C1C2C3C=CC(CC3)C2S(=O)(=O)N1CCCCN1CCN(c2ncccn2)CC1 (stereo not drawn) [Example 2, 3a,3,7,7a-Tetrahydro-2-[4-[4-(2-pyrimidinyl)-1-piperazinyl]butyl]-4,7-ethano-1,2-benzisothiazol-3(2H)-one 1,1-dioxide, dihydrochloride, hydrate] | – | – | 2000 | –
CC1=C(C)CC2C(C1)C(=O)N(CCCCN1CCN(c3ncccn3)CC1)S2(=O)=O (stereo not drawn) [Example 3, 3a,4,7,7a-Tetrahydro-5,6-dimethyl-2-[4-[4-(2-pyrimidinyl)-1-piperazinyl]butyl]-1,2-benzisothiazol-3(2H)-one 1,1-dioxide dihydrochloride] | – | – | – | inhibition at 1 µM ([1]; read-out: Limbic D-2 Binding, % inhibition at 1 μM): 21%
O=C1C2C3C=CC(C4CC34)C2S(=O)(=O)N1CCCCN1CCN(c2ncccn2)CC1 (stereo not drawn) [Example 6, 4,4a,5,5a,6,6a-hexahydro-2-[4-[4-(2-pyrimidinyl)-1-piperazinyl]butyl]-4,6-etheno-2H-cyclopropa[f][1,2]benzisothiazol-3(3aH)-one 1,1-dioxide,dihydrochloride] | – | – | 1410 | –
O=C1c2ccccc2S(=O)(=O)N1CCCCN1CCN(c2nccnc2Cl)CC1 [Example 11, 2-[4-[4-(3-Chloro-2-pyrazinyl)-piperazinyl]butyl]-1,2-benzisothiazol-3(2H)-one 1,1-dioxide, hydrochloride] | – | – | 493 | –
CC1=C(C)CC2C(C1)C(=O)N(CCCCN1CCN(c3nccnc3Cl)CC1)S2(=O)=O (stereo not drawn) [Example 13, 2-[4-[4-(3-Chloro-2-pyrazinyl)-1-piperazinyl]butyl]-3a,4,7,7a-tetrahydro-5,6-dimethyl-1,2-benzisothiazol-3(2H)-one 1,1-dioxide, hydrochloride, hydrate] | – | – | 507 | –
Cl.Cl.O=C1C2C3C=CC(C3)C2S(=O)(=O)N1CCCCN1CCN(c2cncc(Cl)n2)CC1 (stereo not drawn) [Example 14, 2-[4-[4-(6-Chloro-2-pyrazinyl)-1-piperazinyl]butyl]-3a,4,7,7a-tetrahydro-4,7-methano-1,2-benzisothiazol-3(2H)-one 1,1-dioxide, dihydrochloride] | 78.2 | – | – | –
O=C1C2C3CCC(C3)C2S(=O)(=O)N1CCCCN1CCN(c2ncccn2)CC1 (stereo not drawn) [Example 15, 2-[4-[4-(2-Pyrimidinyl)-1-piperazinyl]butyl]-3a,4,5,6,7,7a-hexahydro-4,7-methano-1,2-benzisothiazol-3(2H)-one 1,1-dioxide, dihydrochloride, hemihydrate] | – | showed activity | – | –
Cl.O=C1C2C3CCC(C3)C2S(=O)(=O)N1CCCCN1CCN(c2cncc(Cl)n2)CC1 (stereo not drawn) [Example 16, 2-[4-[4-(6-Chloro-2-pyrazinyl)-1-piperazinyl]butyl]-3a,4,5,6,7,7a-hexahydro-4,7-methano-1,2-benzisothiazol-3(2H)-one 1,1-dioxide, hydrochloride] | – | showed activity | – | –
O=C1C2C3CCC(C4CC43)C2S(=O)(=O)N1CCCCN1CCN(c2ncccn2)CC1 (stereo not drawn) [Example 17, Hexahydro-2-[4-[4-(2-pyrimidinyl)-1-piperazinyl]butyl-4,6-ethano-2H-cycloprop[f]-1,2-benzisothiazol-3(2H)-one 1,1-dioxide, hydrochloride] | – | showed activity | – | –
O=C1C2C3C=CC(C4CC34)C2S(=O)(=O)N1CCCCN1CCN(c2cncc(Cl)n2)CC1 (stereo not drawn) [Example 18, 2-[4-[4-(6-Chloro-2-pyrazinyl)-1-piperazinyl]butyl]-4,4a,5,5a,6,6a-hexahydro-4,6-etheno-2H-cycloprop[f]-1,2-benzisothiazol-3(2H)-one 1,1-dioxide, hydrochloride] | – | showed activity | 1030 | –
O=C1C2C3C=CC(C4C=CC43)C2S(=O)(=O)N1CCCCN1CCN(c2ncccn2)CC1 (stereo not drawn) [Example 21, 3a,4,4a,6a,7,7a-Hexahydro-2-[4-[4-(2-pyrimidinyl)-1-piperazinyl]butyl]-4,7-ethenocyclobut[f]-1,2-benzisothiazol-3(2H)-one 1,1-dioxide, dihydrochloride] | 39.4 | showed activity | – | –
O=C(CCCN1CCC(O)(c2ccc(Cl)cc2)CC1)c1ccc(F)cc1 [Haloperidol, reference compound] | – | – | – | AB50 (standard compounds) ([2]; i.p., discrete trial, rats): 0.18 mg/kg i.p.
O=C(CCCN1CCC2(CC1)C(=O)NCN2c1ccccc1)c1ccc(F)cc1 [Spiperone, reference compound] | – | – | – | ED50 ([2]; ip, discrete trial, rats, read-out: AB50 (standard compounds)): 0.13 mg/kg
